Assay results taken from ChEMBL document CHEMBL1127101, “Interaction of rigid polyamine analogues with the NMDA receptor complex from rat brain” (Bioorg Med Chem Lett, 1993).

Key:
Glutamate NMDA receptor [1] = assay: Tested for the binding of [3H]dizocilpine to NMDA receptor in rat brain membranes in the presence of 500 uM spermidine; format: cell membranes
Glutamate NMDA receptor [2] = assay: Tested for the binding of [3H]dizocilpine to DEPC (diethylpyrocarbonate) membranes of rat
[3] = Tested for the increase in [Ca2+] produced by 30 uM of the compound; format: functional

Row | SMILES | IC50 (Glutamate NMDA receptor [1]) | IC50 (Glutamate NMDA receptor [2]) | Increase [3]
1 | Cc1cc2nc3cc(C)c(N)cc3[n+](-c3ccccc3)c2cc1N | 2.21 µM | 3.95 µM | 77.9%
2 | CC[n+]1c(-c2ccccc2)c2cc(N)ccc2c2ccc(N)cc21 [HOMIDIUM BROMIDE] | 7.34 µM | 3.13 µM | 84.7%
3 | Nc1ccc2nc3ccc(N)cc3[n+](-c3ccccc3)c2c1 [PHENOSAFRANINE] | 4.33 µM | 2.7 µM | 78.4%
4 | CC[N+](C)(CC)CCC[n+]1c(-c2ccccc2)c2cc(N)ccc2c2ccc(N)cc21 [PROPIDIUM] | > 1000 µM | 6.8 µM | 97.6%
